# Assays:
# SIRT1 = SIRT1 deacetylase activity in live SMCs (Fluor de Lys-SIRT1 substrate, TSA-independent); type: cell-based, human; conditions: HITC6 SMCs incubated with 10 nM FK866, 48 h
# Procedure: In vivo assessment of SIRT1 deacetylase activity. Cell-based assessment of SIRT1-like enzymatic activity was performed using the Fluor de lys-SIRT1 substrate (Biomol, Plymouth Meeting, Pa.), as previously described (de Boer, 2006). SMCs in phenol-red free M199 with 5% FBS were incubated for 2 h with 5 μM TSA followed by addition of the fluorogenic substrate for 4 h. Signal was quantified by spectrofluorimetry (Wallac, Wellesley, Mass.) and normalized to total protein content.
# Assessment of SIRT1 Deacetylase Activity. SIRT1 deacetylase activity was quantified in live cells as previously reported (de Boer et al, 2006). SMCs cultured in phenol red-free M199 were incubated without serum for 2 h with 1 μM trichostatin A (Sigma, St. Louis, Mo., USA) followed by addition of 25 μM Fluor-de-Lys-SIRT1 fluorogenic substrate (Biomol, Plymouth Meeting, Pa., USA) for 4 h. Media containing fluorogenic substrate and reaction product was incubated with an equal volume of SIRT1 assay buffer containing 2 mM nicotinamide and developer (Biomol, Plymouth Meeting, Pa., USA). Signal was quantified by spectrofluorometry (Wallac VICTOR-1420, PerkinElmer Life Science, Waltham, Mass., USA) and normalized to total protein content
# Nampt = target: T1, Nampt (Homo sapiens, UniProt P43490); experiment: Nicotinamide phosphoribosyltransferase (Nampt/PBEF) activity in SMC lysates, [14C]nicotinamide to NMN; type: cell-based
# T1 construct: endogenous in cells; host or cells: human vascular SMCs (primary and HITC6), whole cell lysates
# T1 sequence (P43490 whole entry): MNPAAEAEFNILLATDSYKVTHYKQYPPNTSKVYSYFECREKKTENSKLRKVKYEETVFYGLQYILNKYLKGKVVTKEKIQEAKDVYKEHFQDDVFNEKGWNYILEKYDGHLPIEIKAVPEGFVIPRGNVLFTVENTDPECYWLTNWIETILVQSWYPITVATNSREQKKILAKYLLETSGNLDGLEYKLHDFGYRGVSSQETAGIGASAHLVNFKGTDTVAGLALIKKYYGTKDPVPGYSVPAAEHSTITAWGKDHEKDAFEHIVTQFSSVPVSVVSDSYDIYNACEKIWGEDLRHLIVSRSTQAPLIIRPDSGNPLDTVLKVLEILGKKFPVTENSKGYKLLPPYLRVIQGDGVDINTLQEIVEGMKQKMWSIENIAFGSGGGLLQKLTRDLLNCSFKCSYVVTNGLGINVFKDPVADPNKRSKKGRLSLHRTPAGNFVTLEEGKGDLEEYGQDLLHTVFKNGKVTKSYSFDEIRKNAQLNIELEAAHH
# Procedure: Nicotinamide Phosphoribosyltransferase Activity. […] Labelled acetone-precipitable nicotinamide mononucleotide was quantified by scintillation counting.
# Assessment of Nicotinamide Phosphoribosyltransferase Activity. […] Briefly, SMCs were lysed in buffer containing 10 mM NaH2PO4/Na2HPO4, at pH 8.8. Cell lysates were incubated with 0.5 μM [carbonyl-^14C]nicotinamide and 0.5 mM phosphoribosylpyrophosphate for 4 h on a rotating rocker at 37° C.
# HITC6 SMCs = experiment: Senescence-associated beta-galactosidase activity / senescence-free survival; type: cell-based, human; conditions: successive subcultures incubated with 10 nM FK866; p<0.0001
# Procedure: Senescence-associated β-Galatosidase Activity Assay. SMCs on glass coverslips at approximately 70% confluence were fixed in 2% formaldehyde/0.2% glutaraldehyde in PBS for 3 minutes and incubated with X-gal-containing reaction mixture, as previously described (Dimri, 1995). Washed cells were stained with Hoechst 33258 (2.5 μg/ml) and the proportion of senescence-associated β-galactosidase (SA β-Gal)-positive cells quantified from 10 microscope fields of view (Olympus BX51, ×20 objective, approximately 1200 cells). Senescence-free survival was determined using Kaplan-Meier analysis of survival vs. replicative age.
# Senescence-associated Beta-galactosidase Activity. Senescence-associated beta-galactosidase (SA-β-gal) activity was determined as previously described (Dimri et al, 1995). Briefly, SMCs were fixed in PBS containing 2% formaldehyde/0.2% glutaraldehyde for 3 min at room temperature. Fixed cells were then incubated for 4-6 h at 37° C. with SA-β-gal stain solution containing 150 mM NaCl, 2 mM MgCl, 40 mM citrate, 5 mM potassium ferrocyanide, 5 mM potassium ferricyanide, and 1 mg/ml of 5-bromo-4-chloro-3-indolyl-β-D-galactopyranoside (X-gal) (Invitrogen, Carlsbad, Calif., USA), at pH 6.0. SMCs were counterstained with 2.5 μg/ml Hoechst 33258 to detect cell nuclei. The proportion of SA-β-gal activity positive cells was quantified using light and fluorescence microscopy (Olympus BX51, Center Valley, Pa., USA).
smiles,measurement,setting,value
"O=C(/C=C/c1cccnc1)NCCCCC1CCN(C(=O)c2ccccc2)CC1 [FK866, reference compound]",SIRT1 activity,SIRT1,substantial loss
same,"PBEF activity in SMCs, % of baseline",Nampt; 10 nM FK866,22±2%
same,Nampt activity relative to basal level,"Nampt; SMCs incubated with 10 nM FK866, p<0.001",0.11±0.05
same,senescence-free survival (Kaplan-Meier),HITC6 SMCs,substantially shortened

# Reference: patent US20080318892A1, “METHODS AND FORMULATIONS FOR PROTECTING CELLS, AND FOR TREATING DISEASES AND CONDITIONS BY OPTIMIZING THE INTRACELLULAR CONCENTRATION OF NAD” (priority 2007, published 2008)
